Measured values from PubChem BioAssay (NCI).
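Five concentrations, 48 hours, 96-well plates. TGI marks complete inhibition of growth.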

Tested on: RXF-631 renal
Assay: NCI tumour cell line growth inhibition, 48 h

N#CC1(CCCI)CCCC1
TGI: 3.23 µM
